Source: patent US10059968B2, “Method for increasing lipid content in microorganisms and modified microorganisms therefrom” (Reliance […], priority 2014, dated 2018)

System: Chlamydomonas reinhardtii CW-15 cells
Test: Nile Red Assay of lipid content in cells grown with cycloheximide
Format: cell-based
Protocol: FIG. 4A illustrates the graphical representation of fluorescence observed for Chlamydomonas reinhardtii CW-15 cells (Day 4) in Tris Acetate Phosphate medium grown with and without cycloheximide using Nile Red Assay;
Chemical inhibition of protein synthesis is carried out using cycloheximide. Chlamydomonas reinhardtii CW-15 (Chlamydomonas Resource Center, USA), is grown in the presence of varying amounts of cycloheximide (50 μM to 500 μM) to find out the effect of inhibition of protein synthesis on lipid content. […] FIGS. 4B and 4C depict the Nile Red stained cells of Chlamydomonas reinhardtii CW-15 cells grown without the protein inhibitor and in the presence of the protein inhibitor, respectively.

For `C[C@@H]1C[C@@H]([C@H](O)CC2CC(=O)NC(=O)C2)C(=O)[C@@H](C)C1` [cycloheximide], the “lipid content (Nile Red fluorescence)” value (Chlamydomonas reinhardtii CW-15 grown with cycloheximide 50 μM to 500 μM vs without, Day 4, Tris Acetate Phosphate medium) was “increase in lipid content”, the “lipid content (Nile Red fluorescence)” value (cells grown in the presence of 50 μM of cycloheximide) was “Highest lipid content” and the “lipid content (Nile Red fluorescence)” value (higher amounts of cycloheximide (more than 200 μM)) was “decrease in the lipid content”.
